The target of assay [1] is T1, human recombinant norepinephrine transporter (Homo sapiens, UniProt P23975).
T1 construct: expressed in transfected cells; host or cells: MDCK
As to the kind of experiment: Norepinephrine transporter reuptake inhibition assay. Conditions: 100 nM; MDCK cells with human norepinephrine transporter; [3H]Norepinephrine uptake; read-out: Inhibition % at 100 nM NE reuptake. The assay is classed as cell-based. On the procedure: Norepinephrine Transporter Reuptake Inhibition Assay
Norepinephrine transporter reuptake inhibition assay used the method described by Galli A. et al., J Exp Biol., 1995, 198, p 2197˜2212.
MDCK cells with stably expressed human recombinant norepinephrine transporter were plated one day. Test compounds were pre-incubated with cells (2×10^5/ml) in modified Tris-HEPES buffer pH 7.1 for 20 minutes at 25° C. and then they were incubated for additional 10 minutes after 25 nM of [^3H]Norepinephrine was added. A lysate was obtained from solubilized cells and the filtered lysate was counted to determine [^3H]Norepinephrine uptake. Reduction of [^3H]Norepinephrine uptake by 50 percent or more (≧50%) relative to 10 μM desipramine indicates significant inhibitory activity. Compounds were screened at 10, 1, 0.1, 0.01 and 0.001 μM to determine their IC50s.

Assay [2] concerns mice. Put plainly: Forced swimming test in mice (FST). To be noted: Mus musculus, 0.5 h, 30ip, 30 min after administration, vs control group, read-out: Reduction % at 30ip (duration of immobility). The format is in vivo. On the procedure:
Forced Swimming Test in Mice (FST)
The Forced swimming test is an animal model based on the rodent's behavioral repertoire for screening drugs with potential antidepressant activity. As in several other models used for this goal, an uncontrollable stress stimulus produces behavioral changes that are sensitive to antidepressant treatment.
The mice were intraperitoneally treated with the test compound with an injection volume of […]. The group treated with 30% PEG400 served as a control group. Thirty minutes following administration, mice were individually forced to swim in a transparent glass vessel (14 cm high, 11.5 cm in diameter) filled with 10 cm of water at 25° C. The total duration of immobility (second) was measured during the last 4 minutes of a single 6-min test session. Mice were considered immobile when they made no further attempts to escape other than the movements necessary to keep their heads above the water. The potent ability of the compounds was determined as percent value of reduction in the duration of immobility comparing to the control group.

Assay [3] has as its target T2, human recombinant dopamine transporter (Homo sapiens, UniProt Q01959).
T2 construct: expressed in transfected cells; host or cells: CHO-K1
Put plainly: Dopamine transporter reuptake inhibition assay. To be noted: 100 nM; CHO-K1 cells with human dopamine transporter; [3H]Dopamine uptake; read-out: Inhibition % at 100 nM DA reuptake. The assay is classed as cell-based. On the procedure: Dopamine Transporter Reuptake Inhibition Assay
The assay followed the method modified from Pristupa Z. B. et al., Mol. Pharmacol., 1994, p 125˜135.
CHO-K1 cells with human recombinant dopamine transporter were plated. Test compounds were pre-incubated with cells (4×10^5/ml) in modified Tris-HEPES buffer pH 7.1 for 20 minutes at 25° C. and then they were incubated for additional 10 minutes after 50 nM of [^3H]Dopamine was added. A lysate is obtained from solubilized cells and counted to determine [^3H]Dopamine uptake. Reduction of [^3H]Dopamine uptake by 50 percent or more (≧50%) relative to 10 μM nomifensine indicates significant inhibitory activity. Compounds were tested at 10, 1, 0.1, 0.01 and 0.001 μM for IC50s.

Assay [4] concerns mice. Put plainly: Marble burying test. To be noted: 30 min after treatment, vs control group. The assay is classed as in vivo. The text has this:
The Marble burying test is a screening tool for putative anxiolytics. In this test, control mice naturally bury glass marbles in the cage bedding and the administration of anxiolytic compounds, including Diazepam, reduces the number of buried marbles. Positive compounds in the marble burying test including selective serotonin reuptake inhibitor may be especially beneficial to obsessive-compulsive disorder.
A group of mice was intraperitoneally treated with test compound dissolved in 30% PEG400 with an injection volume of 10 ml/kg. The group treated with only 30% PEG400 served as a control group. Thirty minutes after the treatment, the animals were individually placed in a polycarbonate cage which was same as used for animal housing with an open top located within a quiet room. Each cage consisted of ⅛ inch corn bedding 5 cm deep. Twenty four clean glass marbles (15 mm diameter) were evenly spaced in four rows of six on top of the bedding. Each mouse was left in the cage for 30 minutes and the number of marbles buried (buried more than ½ or ⅔) was counted. The potent ability of the compounds was determined as percent value of reduction in the number of marbles buried comparing to the control group.

Assay [5] relates to mice. Put plainly: Acetic acid induced writhing test (AA writhing test). Conditions: 0.8% acetic acid i.p. 30 min later, vs control group. The format is in vivo. The text has this: Specially the results of Marble burying test (MB) in mice as noted in Table 3 show the compounds of the invention are related to the treatment of anxiety. Acetic Acid Induced Writhing Test (AA Writhing Test)
The Acetic acid-induced writhing test is a well-established nociceptive test using a chemical stimulus. Although several animal models of nociceptive tests have been developed to examine and compare the anti-nociceptive effects of different drugs, the anti-nociceptive effects of antidepressants appear to be test-dependent. Indeed, the acetic acid-induced writhing test is more sensitive to antidepressants than other tests using thermal, mechanical or electrical stimuli.
The animals were subcutaneously treated with the test compound with an injection volume of 10 ml/kg. The group treated with 30% PEG400 or saline served as a control group. Thirty minutes later, the mice were intraperitoneally treated with 0.8% (v/v) acetic acid. Each mouse was then placed in a cage for individual observation. The writhing numbers for 10 minutes were counted. The writhe is operationally defined as a contraction of the abdomen followed by stretching of the hind limbs. The potent ability of the compounds was determined as percent value of reduction in the number of writhing comparing to the control group.
Background: Writhing tests count abdominal constrictions after an irritant is injected.

The target of assay [6] is T3, human serotonin transporter (Homo sapiens, UniProt P31645).
T3 construct: expressed in transfected cells; host or cells: HEK-293
T3 sequence (P31645 whole entry): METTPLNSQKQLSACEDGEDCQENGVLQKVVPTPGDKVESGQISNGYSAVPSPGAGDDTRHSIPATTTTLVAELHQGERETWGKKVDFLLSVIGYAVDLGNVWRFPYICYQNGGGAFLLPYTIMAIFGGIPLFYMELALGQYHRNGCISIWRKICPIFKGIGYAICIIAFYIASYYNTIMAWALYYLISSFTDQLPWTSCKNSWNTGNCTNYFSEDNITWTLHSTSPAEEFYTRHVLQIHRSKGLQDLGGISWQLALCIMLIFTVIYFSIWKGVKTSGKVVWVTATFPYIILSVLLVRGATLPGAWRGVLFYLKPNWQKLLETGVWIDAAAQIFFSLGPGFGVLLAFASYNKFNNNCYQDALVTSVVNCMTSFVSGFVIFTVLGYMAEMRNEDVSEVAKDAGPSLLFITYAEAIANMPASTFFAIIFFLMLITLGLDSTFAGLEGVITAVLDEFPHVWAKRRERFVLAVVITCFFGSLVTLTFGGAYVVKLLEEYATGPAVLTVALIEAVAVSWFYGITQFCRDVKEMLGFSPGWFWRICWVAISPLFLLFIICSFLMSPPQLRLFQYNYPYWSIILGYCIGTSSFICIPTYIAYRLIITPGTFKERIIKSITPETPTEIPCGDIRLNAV
As to the kind of experiment: Serotonin transporter reuptake inhibition assay. The format is cell-based. To be noted: HEK293; 100 nM; HEK-293 cells with human serotonin transporter; [3H]Serotonin uptake; read-out: Inhibition % at 100 nM 5-HT reuptake. On the procedure: Serotonin Transporter Reuptake Inhibition Assay
The method to test the ability of compounds to inhibit transporters from reuptake of serotonin followed Gu H. et al., J Biol. Chem., 1994, 269, p […].
The recombinant HEK-293 cells with human serotonin transporter were plated. Test compounds were pre-incubated with cells (2×10^5/ml) in modified Tris-HEPES buffer pH 7.1 for 20 minutes at 25° C. and then they were incubated for additional 10 minutes after 65 nM of [^3H]Serotonin was added. Bound cells were filtered and counted to determine [^3H]Serotonin uptake. Reduction of [^3H]Serotonin uptake by 50 percent or more (≧50%) relative to 10 μM fluoxetine indicates significant inhibitory activity. Compounds were screened at 10, 1, 0.1, 0.01 and 0.001 μM for IC50s.

Consider five compounds from patent US8513285B2, “3 or 4-substituted piperidine compounds” (SK Biopharmaceuticals Co., Ltd., priority 2008, dated 2013).

What is called inhibition is how much of the control response was suppressed.

T1 sequence (P23975 whole entry): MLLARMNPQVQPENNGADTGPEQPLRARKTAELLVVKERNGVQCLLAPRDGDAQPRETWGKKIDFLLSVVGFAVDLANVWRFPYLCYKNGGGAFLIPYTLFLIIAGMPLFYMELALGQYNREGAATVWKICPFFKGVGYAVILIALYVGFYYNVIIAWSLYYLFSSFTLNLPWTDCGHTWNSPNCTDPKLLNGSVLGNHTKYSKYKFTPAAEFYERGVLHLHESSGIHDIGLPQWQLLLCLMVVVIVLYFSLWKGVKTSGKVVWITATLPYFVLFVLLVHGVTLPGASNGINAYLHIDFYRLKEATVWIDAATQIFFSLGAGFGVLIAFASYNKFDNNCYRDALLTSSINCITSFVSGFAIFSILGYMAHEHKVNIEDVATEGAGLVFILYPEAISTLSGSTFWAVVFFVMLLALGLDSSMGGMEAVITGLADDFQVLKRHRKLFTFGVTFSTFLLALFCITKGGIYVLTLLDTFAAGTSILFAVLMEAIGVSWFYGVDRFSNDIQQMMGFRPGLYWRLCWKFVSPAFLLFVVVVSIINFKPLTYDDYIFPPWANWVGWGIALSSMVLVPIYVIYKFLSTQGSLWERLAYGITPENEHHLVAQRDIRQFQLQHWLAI
T2 sequence (Q01959 whole entry): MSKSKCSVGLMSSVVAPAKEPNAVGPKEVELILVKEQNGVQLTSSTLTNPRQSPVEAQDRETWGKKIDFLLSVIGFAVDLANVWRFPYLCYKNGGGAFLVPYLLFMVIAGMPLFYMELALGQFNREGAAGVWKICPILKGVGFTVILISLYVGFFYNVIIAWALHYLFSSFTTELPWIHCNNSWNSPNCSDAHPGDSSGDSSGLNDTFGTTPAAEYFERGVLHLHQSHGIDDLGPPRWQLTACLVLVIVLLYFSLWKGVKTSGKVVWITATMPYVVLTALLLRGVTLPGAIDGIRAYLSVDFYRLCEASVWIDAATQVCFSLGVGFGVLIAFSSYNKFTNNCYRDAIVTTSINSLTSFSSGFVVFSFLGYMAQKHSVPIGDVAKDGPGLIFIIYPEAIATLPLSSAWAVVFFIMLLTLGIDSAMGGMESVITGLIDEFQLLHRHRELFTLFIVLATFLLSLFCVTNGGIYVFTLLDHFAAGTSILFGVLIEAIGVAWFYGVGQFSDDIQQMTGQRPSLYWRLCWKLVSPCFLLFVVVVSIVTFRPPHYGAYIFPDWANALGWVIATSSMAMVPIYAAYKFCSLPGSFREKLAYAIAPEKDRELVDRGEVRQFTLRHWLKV

Take `Clc1ccc([C@@H]([C@@H]2CCCNC2)n2ncnn2)cc1Cl` [Example 15, (3R)-3-[(R)-(3,4-dichlorophenyl)(2H-tetrazol-2-yl)methyl]piperidine]: the inhibition at 0.1 µM in assay [1] was determined as 98%; in assay [3] it was 99%; in assay [6] it was 75%. Besides, the inhibition in vivo at 30 mg/kg in the assay on mice [2] stood at 96.5%. In addition, in the assay with mice [4], the “Reduction % at 30ip (number of marbles buried)” value (from here on “Reduction % at 30ip”) is reported as 75.3%. For the same compound, the “Reduction % at 30sc (number of writhing)” value in the assay with mice [5] is listed as 55.3%.
`Fc1ccc2cc([C@H]([C@H]3CCCNC3)n3ncnn3)ccc2c1` [Example 71]: the inhibition at 0.1 µM is 46% in assay [1], 54% in assay [3] and 92% in assay [6]. In addition, the inhibition in vivo at 30 mg/kg in the assay on mice [2] is 54%. Also, the “Reduction % at 30ip” value with mice [4] is reported as 86.0%. Also, the “Reduction % at 30sc (number of writhing)” value in the assay with mice [5] was 48.7%.
`Cc1nnn([C@@H](c2ccc3ccccc3c2)[C@@H]2CCCNC2)n1` [Example 12, (3R)-3-[(R)-(5-methyl-2H-tetrazol-2-yl)(naphthalen-2-yl)methyl]piperidine]: the inhibition at 0.1 µM in assay [1] turned out to be 90%; in assay [3], 92%; in assay [6], 83%. For the same compound, the inhibition in vivo at 30 mg/kg in the assay with mice [2] amounted to 9.7%. Besides, the “Reduction % at 30ip” value in the assay on mice [4] came to 91.8%. In the assay on mice [5], the “Reduction % at 30sc (number of writhing)” value is 50.5%.
As for `Fc1ccc2cc([C@@H]([C@@H]3CCCNC3)n3ncnn3)ccc2c1` [Example 83, (3R)-3-[(R)-(6-fluoronaphthalen-2-yl)(2H-tetrazol-2-yl)methyl]piperidine], the inhibition at 0.1 µM is 78% in assay [1], 66% in assay [3] and 96% in assay [6]. For the same compound, the inhibition in vivo at 30 mg/kg with mice [2] amounted to 51.8%. Further, in the assay on mice [4], the “Reduction % at 30ip” value came to 83.7%. In addition, in the assay on mice [5], the “Reduction % at 30sc (number of writhing)” value was determined as 84.1%.
With `c1ccc2cc([C@H]([C@H]3CCCNC3)n3ncnn3)ccc2c1` [Example 2, (3S)-3-[(S)-naphthalen-2-yl(2H-tetrazol-2-yl)methyl]piperidine], the inhibition at 0.1 µM came to 85% in assay [1], 85% in assay [3] and 98% in assay [6]. Also, the inhibition in vivo at 30 mg/kg in the assay with mice [2] was 37.5%. Moreover, the “Reduction % (number of marbles buried) at 20ip” value in the assay on mice [4] (20ip) is reported as 67.5% (at 20ip). In addition, in the assay on mice [5] (10sc), the “Reduction % (number of writhing) at 10sc” value is recorded as 60.6% (at 10sc).
